Source: patent US20140288044A1, “COMPOSITIONS AND THERAPEUTIC USES OF IKK-RELATED KINASE EPSILON AND TANKBINDING KINASE 1 INHIBITORS” (Alzheimer's Institute of America, Inc., priority 2011, published 2014)
Where two headings read alike, the source gives them in different places.

Biological target: T1, IKKε (Homo sapiens, UniProt Q14164)
T1 construct: His-tag (in-house Sf9 preparation) or GST-tag (purchased Invitrogen preparation); these are alternatives, not both on one protein; host or cells: Sf9 cells
T1 sequence (Q14164 1-716): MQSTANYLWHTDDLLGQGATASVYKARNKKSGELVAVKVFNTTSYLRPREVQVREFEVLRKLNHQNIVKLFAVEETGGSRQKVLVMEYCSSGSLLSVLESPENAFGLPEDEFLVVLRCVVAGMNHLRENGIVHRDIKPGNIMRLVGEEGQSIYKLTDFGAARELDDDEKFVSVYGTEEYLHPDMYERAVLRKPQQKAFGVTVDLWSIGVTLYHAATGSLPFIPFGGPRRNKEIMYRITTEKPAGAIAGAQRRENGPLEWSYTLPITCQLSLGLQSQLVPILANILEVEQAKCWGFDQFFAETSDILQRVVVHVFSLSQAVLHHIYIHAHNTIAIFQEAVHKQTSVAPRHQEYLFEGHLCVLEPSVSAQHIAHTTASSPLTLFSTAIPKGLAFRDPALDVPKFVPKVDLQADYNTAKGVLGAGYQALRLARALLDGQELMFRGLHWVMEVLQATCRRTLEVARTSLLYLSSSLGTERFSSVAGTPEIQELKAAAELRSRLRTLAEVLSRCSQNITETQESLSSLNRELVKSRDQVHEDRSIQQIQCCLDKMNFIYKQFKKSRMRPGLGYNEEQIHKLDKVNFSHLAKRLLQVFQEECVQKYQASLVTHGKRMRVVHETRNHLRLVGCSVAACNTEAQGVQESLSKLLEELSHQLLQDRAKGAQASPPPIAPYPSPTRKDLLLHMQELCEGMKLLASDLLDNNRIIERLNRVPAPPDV
Assay: In-vitro IKKε kinase assay (radiolabelled ATP, filterplate)
Format: biochemical
Method: IKKε enzyme was produced as a His-tag fusion in Sf9 cells or purchased as a GST-tag fusion (Invitrogen, Carlsbad, Calif.). TBK1 enzyme was produced as a His-tag fusion in Sf9 cells. Kinase reactions were carried out in reaction buffer using myelin basic protein (Millipore, Ballerica, Mass.), casein or dephosphorylated casein (Sigma, St. Louis, Mo.) as substrate at an ATP concentration equal to twice the Km,ATP value for each enzyme, corresponding to 32 μM ATP for IKKε and 60 μM ATP for TBK1. Radiolabelled [γ^33]ATP (PerkinElmer, Waltham, Mass.) in the amount of […] (IKKe, “normal”) or 0.7 μCi (IKKε, “sensitized”) or 1.25 μCi (TBK1) was added to each assay. Final enzyme concentrations were 0.1 or 0.015 μg/ml (IKKε) and 0.1 or 0.02 μg/ml (TBK1) for the “normal” and “sensitized” assay, respectively, and “sensitized” assays were conducted using only dephosphorylated casein as substrate. Test compounds (or DMSO solvent as a control) were added prior to initiation of the reactions. Reactions were terminated after 30-45 minutes by adding 3% phosphoric acid. Terminated reactions were transferred to P-81 cellulose phosphate filterplates (Whatman, Inc., Piscataway, N.J.) and washed with 1% phosphoric acid on a vacuum apparatus. After air drying, scintillant (PerkinElmer, Waltham, Mass.) was added and the plates were read on a PerkinElmer TopCount NXT instrument. Counts were normalized to DMSO controls after background subtraction.

[1] = "sensitized" assay, read-out: IC50, inhibition of the kinase activity of IKKε
[2] = in-vitro IKKε kinase inhibition assays, given as 0.005 μM (5 nM), read-out: IKKε kinase inhibitory activity (IC50 value)

IC50 [2] | Compound | IC50 [1]
< 5 nM | N#Cc1cc(-c2ccnc(Nc3cncc(N4CCOCC4)n3)n2)ccc1OC1CCOCC1 [Example Compound 89, 5-(2-{[6-(Morpholin-4-yl)pyrazin-2-yl]amino}pyrimidin-4-yl)-2-(tetrahydro-2H-pyran-4-yloxy)benzonitrile] | < 5 nM
< 5 nM | CC(=O)c1ccc(Nc2nccc(-c3ccc(OC4CCOCC4)c(C#N)c3)n2)cn1 [Example Compound 62, 5-{2-[(6-Acetylpyridin-3-yl)amino]pyrimidin-4-yl}-2-(tetrahydro-2H-pyran-4-yloxy)benzonitrile] | 
 | Cc1ccc(Nc2nccc(-c3ccc(OC4CCN(C(=O)CO)CC4)c(C#N)c3)n2)cn1 [Example Compound 221, 2-{[1-(Hydroxyacetyl)piperidin-4-yl]oxy}-5-{2-[(6-methylpyridin-3-yl)amino]pyrimidin-4-yl}benzonitrile] | < 5 nM
< 5 nM | N#Cc1cc(-c2ccnc(Nc3ccc(N4CC(O)C4)nc3)n2)ccc1OC1CCOCC1 [Example Compound 46, 5-(2-{[6-(3-Hydroxyazetidin-1-yl)pyridin-3-yl]amino}pyrimidin-4-yl)-2-(tetrahydro-2H-pyran-4-yloxy)benzonitrile] | 
 | Cc1cc(Nc2nccc(-c3ccc(O[C@@H]4CCN(C(=O)CO)C4)c(C#N)c3)n2)ccn1 [Example Compound 223, 2-{[(3R)-1-(Hydroxyacetyl)pyrrolidin-3-yl]oxy}-5-{2-[(2-methylpyridin-4-yl)amino]pyrimidin-4-yl}benzonitrile] | < 5 nM
 | C[C@@H](O)C(=O)N(C)Cc1ccc(Nc2nccc(-c3ccc(OC4CCOCC4)c(C#N)c3)n2)cn1 [Example Compound 198, (2R)-N-{[5-({4-[3-Cyano-4-(tetrahydro-2H-pyran-4-yloxy)phenyl]pyrimidin-2-yl}amino)pyridin-2-yl]methyl}-2-hydroxy-N-methylpropanamide] | < 5 nM
 | COC1CN(c2cc(Nc3nccc(-c4ccc(OCC5CC5)c(C#N)c4)n3)ccn2)C1 [Example Compound 248, 2-(Cyclopropylmethoxy)-5-(2-{[2-(3-methoxyazetidin-1-yl)pyridin-4-yl]amino}pyrimidin-4-yl)benzonitrile] | < 5 nM
 | N#Cc1cc(-c2ccnc(Nc3ccnc(CN4CCC(F)(F)C4)c3)n2)ccc1OC1CCOCC1 [Example Compound 220, 5-[2-({2-[(3,3-Difluoropyrrolidin-1-yl)methyl]pyridin-4-yl}amino)pyrimidin-4-yl]-2-(tetrahydro-2H-pyran-4-yloxy)benzonitrile] | < 5 nM
< 5 nM | C[C@H](O)C(=O)N1CCC(Oc2ccc(-c3ccnc(Nc4ccc(N5CCOCC5)nc4)n3)cc2C#N)CC1 [Example Compound 127, 2-({1-[(2S)-2-Hydroxypropanoyl]piperidin-4-yl}oxy)-5-(2-{[6-(morpholin-4-yl)pyridin-3-yl]amino}pyrimidin-4-yl)benzonitrile] | < 5 nM
< 5 nM | COC(=O)c1ccc(Nc2nccc(-c3ccc(OC4CCOCC4)c(C#N)c3)n2)cn1 [Example Compound 33, Methyl 5-({4-[3-cyano-4-(tetrahydro-2H-pyran-4-yloxy)phenyl]pyrimidin-2-yl}amino)pyridine-2-carboxylate] | < 5 nM
< 5 nM | N#Cc1cc(-c2ccnc(Nc3ccc(C(=O)N4CCC4)nc3)n2)ccc1OC1CCOCC1 [Example Compound 30, 5-(2-{[6-(Azetidin-1-ylcarbonyl)pyridin-3-yl]amino}pyrimidin-4-yl)-2-(tetrahydro-2H-pyran-4-yloxy)benzonitrile] | < 5 nM
< 5 nM | COC1CN(Cc2cc(Nc3nccc(-c4ccc(OC5CCOCC5)c(C#N)c4)n3)ccn2)C1 [Example Compound 69, 5-[2-({2-[(3-Methoxyazetidin-1-yl)methyl]pyridin-4-yl}amino)pyrimidin-4-yl]-2-(tetrahydro-2H-pyran-4-yloxy)benzonitrile] | 
 | Cn1cc(-c2cc(Nc3nccc(-c4ccc(O[C@@H]5CCN(C(=O)CO)C5)c(C#N)c4)n3)ccn2)cn1 [Example Compound 204, 2-{[(3R)-1-(Hydroxyacetyl)pyrrolidin-3-yl]oxy}-5-(2-{[2-(1-methyl-1H-pyrazol-4-yl)pyridin-4-yl]amino}pyrimidin-4-yl)benzonitrile] | < 5 nM
 | N#Cc1cc(-c2ccnc(Nc3ccnc(N4CC(O)C4)c3)n2)ccc1OCC1CC1 [Example Compound 241, 2-(Cyclopropylmethoxy)-5-(2-{[2-(3-hydroxyazetidin-1-yl)pyridin-4-yl]amino}pyrimidin-4-yl)benzonitrile] | < 5 nM
 | CN(Cc1ccc(Nc2nccc(-c3ccc(OC4CCOCC4)c(C#N)c3)n2)cn1)C(=O)C1(N)CC1 [Example Compound 196, 1-Amino-N-{[5-({4-[3-cyano-4-(tetrahydro-2H-pyran-4-yloxy)phenyl]pyrimidin-2-yl}amino)pyridin-2-yl]methyl}-N-methylcyclopropanecarboxamide] | < 5 nM
 | N#Cc1cc(-c2ccnc(Nc3ccc(-n4ccnc4)nc3)n2)ccc1OC1CCOCC1 [Example Compound 200, 5-(2-{[6-(1H-Imidazol-1-yl)pyridin-3-yl]amino}pyrimidin-4-yl)-2-(tetrahydro-2H-pyran-4-yloxy)benzonitrile] | < 5 nM
< 5 nM | CC(O)c1ccc(Nc2nccc(-c3ccc(OC4CCOCC4)c(C#N)c3)n2)cn1 (centres unmarked) [Example Compound 61, 5-(2-{[6-(1-Hydroxyethyl)pyridin-3-yl]amino}pyrimidin-4-yl)-2-(tetrahydro-2H-pyran-4-yloxy)benzonitrile] | 
 | Cn1cc(-c2ccc(Nc3nccc(-c4ccc(OC5CCOCC5)c(C#N)c4)n3)cn2)cn1 [Example Compound 189, 5-(2-{[6-(1-Methyl-1H-pyrazol-4-yl)pyridin-3-yl]amino}pyrimidin-4-yl)-2-(tetrahydro-2H-pyran-4-yloxy)benzonitrile] | < 5 nM
 | COCCNc1ncc(-c2ccc(Nc3nccc(-c4ccc(OC5CCOCC5)c(C#N)c4)n3)cn2)cn1 [Example Compound 187, 5-{2-[(6-{2-[(2-Methoxyethyl)amino]pyrimidin-5-yl}pyridin-3-yl)amino]pyrimidin-4-yl}-2-(tetrahydro-2H-pyran-4-yloxy)benzonitrile] | < 5 nM
 | COCCNc1cc(Nc2nccc(-c3ccc(OCC4CC4)c(C#N)c3)n2)ccn1 [Example Compound 245, 2-(Cyclopropylmethoxy)-5-[2-({2-[(2-methoxyethyl)amino]pyridin-4-yl}amino)pyrimidin-4-yl]benzonitrile] | < 5 nM
< 5 nM | COc1cncc(Nc2nccc(-c3ccc(OC4CCOCC4)c(C#N)c3)n2)c1 [Example Compound 27, 5-{2-[(5-Methoxypyridin-3-yl)amino]pyrimidin-4-yl}-2-(tetrahydro-2H-pyran-4-yloxy)benzonitrile] | < 5 nM
 | CC(c1ccc(Nc2nccc(-c3ccc(OC4CCOCC4)c(C#N)c3)n2)cn1)N1CC(O)C1 (centres unmarked) [Example Compound 214, 5-[2-({6-[1-(3-Hydroxyazetidin-1-yl)ethyl]pyridin-3-yl}amino)pyrimidin-4-yl]-2-(tetrahydro-2H-pyran-4-yloxy)benzonitrile] | < 5 nM
 | COc1cc(Nc2nccc(-c3ccc(OC4CCN(C(=O)CO)CC4)c(C#N)c3)n2)ccn1 [Example Compound 222, 2-{[1-(Hydroxyacetyl)piperidin-4-yl]oxy}-5-{2-[(2-methoxypyridin-4-yl)amino]pyrimidin-4-yl}benzonitrile] | < 5 nM
< 5 nM | N#Cc1cc(-c2ccnc(Nc3ccc(CNC(=O)N4CCOCC4)nc3)n2)ccc1OC1CCOCC1 [Example Compound 67, N-{[5-({4-[3-Cyano-4-(tetrahydro-2H-pyran-4-yloxy)phenyl]pyrimidin-2-yl}amino)pyridin-2-yl]methyl}morpholine-4-carboxamide] | 
